How the values were obtained:
[1] = tested on: Rattus norvegicus; experiment: Induction of FSH release in immature male rat at 100 ng, sc measured after 15 mins to 6 hrs post dose by RIA relative to LH-RH
[2] = tested on: Rattus norvegicus; experiment: Induction of luteinizing hormone release in immature male rat at 100 ng, sc measured after 15 mins to 6 hrs post dose by RIA relative to LH-RH
[3] = tested on: Rattus norvegicus; experiment: Induction of luteinizing hormone release in ovariectomized estrogen/progesterone-treated rat at 10 ng, sc measured at 30 mins post dose by RIA (reference value: 5.3 +/- 1.5 ng/ml); assay type: functional
[4] = tested on: Rattus norvegicus; experiment: Induction of luteinizing hormone release in ovariectomized estrogen/progesterone-treated rat at 50 ng, sc measured at 30 mins post dose by RIA (reference value: 5.3 +/- 1.5 ng/ml); assay type: functional
[5] = tested on: Rattus norvegicus; experiment: Induction of luteinizing hormone release in ovariectomized estrogen/progesterone-treated rat at 10 ng, sc measured at 60 mins post dose by RIA (reference value: 6.0+/- 0.4 ng/ml); assay type: functional
[6] = tested on: Rattus norvegicus; experiment: Induction of luteinizing hormone release in ovariectomized estrogen/progesterone-treated rat at 50 ng, sc measured at 60 mins post dose by RIA (reference value: 6.0+/- 0.4 ng/ml); assay type: functional
[7] = tested on: Rattus norvegicus; experiment: Induction of luteinizing hormone release in ovariectomized estrogen/progesterone-treated rat at 100 ng, sc measured after 30 mins post dose by RIA relative to LH-RH; assay type: functional
[8] = tested on: Rattus norvegicus; experiment: Induction of luteinizing hormone release in ovariectomized estrogen/progesterone-treated rat at 1 ng, sc measured at 30 mins post dose by RIA (reference value: 5.3 +/- 1.5 ng/ml); assay type: functional
[9] = tested on: Rattus norvegicus; experiment: Induction of luteinizing hormone release in ovariectomized estrogen/progesterone-treated rat at 5 ng, sc measured at 30 mins post dose by RIA (reference value: 5.3 +/- 1.5 ng/ml); assay type: functional
[10] = tested on: Rattus norvegicus; experiment: Induction of luteinizing hormone release in ovariectomized estrogen/progesterone-treated rat at 1 ng, sc measured at 60 mins post dose by RIA (reference value: 6.0+/- 0.4 ng/ml); assay type: functional
[11] = tested on: Rattus norvegicus; experiment: Induction of luteinizing hormone release in ovariectomized estrogen/progesterone-treated rat at 5 ng, sc measured at 60 mins post dose by RIA (reference value: 6.0+/- 0.4 ng/ml); assay type: functional

SMILES | Ratio [1] | Ratio [2] | other results
CC(C)C[C@H](NC(=O)[C@@H](Cc1ccccc1)NC(=O)[C@H](Cc1ccc(O)cc1)NC(=O)[C@H](CO)NC(=O)[C@H](Cc1c[nH]c2ccccc12)NC(=O)[C@H](Cc1cnc[nH]1)NC(=O)[C@@H]1CCC(=O)N1)C(=O)N[C@@H](CCCNC(=N)N)C(=O)N1CCC[C@H]1C(=O)NCC(N)=O | 20 | 10 | 
CCNC(=O)[C@@H]1CCCN1C(=O)[C@H](CCCNC(=N)N)NC(=O)[C@H](CC(C)C)NC(=O)[C@@H](Cc1ccccc1)NC(=O)[C@H](Cc1ccc(O)cc1)NC(=O)[C@H](CO)NC(=O)[C@H](Cc1c[nH]c2ccccc12)NC(=O)[C@H](Cc1cnc[nH]1)NC(=O)[C@@H]1CCC(=O)N1 | 7 | 8 | 
CC(C)C[C@H](NC(=O)[C@@H](C)N(C)C(=O)[C@H](Cc1ccc(O)cc1)NC(=O)[C@H](CO)NC(=O)[C@H](Cc1c[nH]c2ccccc12)NC(=O)[C@H](Cc1cnc[nH]1)NC(=O)[C@@H]1CCC(=O)N1)C(=O)N[C@@H](CCCNC(=N)N)C(=O)N1CCC[C@H]1C(=O)NCC(N)=O |  |  | Activity [3]: 22.9 ng/mL; Activity [4]: 47.8 ng/mL; Activity [5]: 8.9 ng/mL; Activity [6]: 18.6 ng/mL; Ratio [7]: 0.1
CCNC(=O)[C@@H]1CCCN1C(=O)[C@H](CCCNC(=N)N)NC(=O)[C@H](CC(C)C)NC(=O)[C@@H](Cc1c[nH]c2ccccc12)NC(=O)[C@H](Cc1ccc(O)cc1)NC(=O)[C@H](CO)NC(=O)[C@H](Cc1c[nH]c2ccccc12)NC(=O)[C@H](Cc1c[nH]cn1)NC(=O)[C@@H]1CCC(=O)N1 [DESLORELIN] | 6 | 7 | 
CC(C)C[C@H](NC(=O)[C@@H](CCC(=O)O)NC(=O)[C@H](Cc1ccc(O)cc1)NC(=O)[C@H](CO)NC(=O)[C@H](Cc1c[nH]c2ccccc12)NC(=O)[C@H](Cc1cnc[nH]1)NC(=O)[C@@H]1CCC(=O)N1)C(=O)N[C@@H](CCCNC(=N)N)C(=O)N1CCC[C@H]1C(=O)NCC(N)=O | 1.5 | 1.8 | 
CCNC(=O)[C@@H]1CCCN1C(=O)[C@H](CCCNC(=N)N)NC(=O)[C@H](CC(C)C)NC(=O)[C@@H](CC(C)C)NC(=O)[C@H](Cc1ccc(O)cc1)NC(=O)[C@H](CO)NC(=O)[C@H](Cc1c[nH]c2ccccc12)NC(=O)[C@H](Cc1c[nH]cn1)NC(=O)[C@@H]1CCC(=O)N1 [LEUPROLIDE] | 11 | 15 | 
CC(C)C[C@H](NC(=O)CNC(=O)[C@H](Cc1ccc(O)cc1)NC(=O)[C@H](CO)NC(=O)[C@H](Cc1c[nH]c2ccccc12)NC(=O)[C@H](Cc1cnc[nH]1)NC(=O)[C@@H]1CCC(=O)N1)C(=O)N[C@@H](CCCNC(=N)N)C(=O)N1CCC[C@H]1C(=O)NCC(N)=O [GONADORELIN] |  |  | Activity [8]: 24.5 ng/mL; Activity [9]: 47 ng/mL; Activity [10]: 9.6 ng/mL; Activity [11]: 15.4 ng/mL
CC(C)C[C@H](NC(=O)[C@@H](Cc1c[nH]c2ccccc12)NC(=O)[C@H](Cc1ccc(O)cc1)NC(=O)[C@H](CO)NC(=O)[C@H](Cc1c[nH]c2ccccc12)NC(=O)[C@H](Cc1c[nH]cn1)NC(=O)[C@@H]1CCC(=O)N1)C(=O)N[C@@H](CCCNC(=N)N)C(=O)N1CCC[C@H]1C(=O)NCC(N)=O [TRIPTORELIN] | 21 | 13 | 
CC(C)C[C@H](NC(=O)[C@@H](C)NC(=O)[C@H](Cc1ccc(O)cc1)NC(=O)[C@H](CO)NC(=O)[C@H](Cc1c[nH]c2ccccc12)NC(=O)[C@H](Cc1cnc[nH]1)NC(=O)[C@@H]1CCC(=O)N1)C(=O)N[C@@H](CCCNC(=N)N)C(=O)N1CCC[C@H]1C(=O)NCC(N)=O | 13 | 7 | 

From ChEMBL document CHEMBL3272022, “Analogs of luteinizing hormone-releasing hormone with increased biological activity produced by D-amino acid substitutions in position 6” (1976)
